ChEMBL document CHEMBL1121374, “Analgesic narcotic antagonists. 4. 7-Methyl-N-(cycloalkylmethyl)-3-hydroxymorphinan-6-ones and -isomorphinan-6-ones” (1980)
The source made the active and inactive calls. The calls are words filed in the database; no cut-off is given here.

Columns and labels:
[1] = system: Mus musculus; assay: Compound was tested for analgesia in mouse writhing assay by subcutaneous administration; type: functional
[2] = system: Rattus norvegicus; assay: Antagonist activity in rat tail flick assay by subcutaneous administration; type: functional
[3] = system: Rattus norvegicus; assay: Compound was tested for antagonist in rat tail flick assay by intraperitoneal administration at dose 25 umol/kg; IA means inactive; type: functional, organism-based
[4] = system: Mus musculus; assay: Compound was tested for analgesia in mouse writhing assay by subcutaneous administration; IA means inactive; type: functional, organism-based
[5] = system: Rattus norvegicus; assay: Antagonist activity in rat tail flick assay by intraperitoneal administration; type: functional
[6] = species on record: Rattus norvegicus; assay: Ratio of agonist potency to antagonist potency was determined; type: functional
[7] = system: Mus musculus; assay: Compound was tested for analgesia in mouse writhing assay by subcutaneous administration short duration at 5 min; type: functional; conditions: sc
[8] = system: Rattus norvegicus; assay: Compound was tested for antagonist in rat tail flick assay by subcutaneous administration at dose 27 umol/kg; IA means inactive; type: functional, organism-based
[9] = system: Rattus norvegicus; assay: Compound was tested for antagonist in rat tail flick assay by subcutaneous administration at dose 29 umol/kg; IA means inactive; type: functional, organism-based
[10] = system: Rattus norvegicus; assay: Compound was tested for antagonist in rat tail flick assay by subcutaneous administration at dose 33 umol/kg; IA means inactive; type: functional, organism-based
[11] = Mus musculus, sc, read-out: ED50
[12] = Rattus norvegicus, Tail, sc, read-out: ED50
[13] = Rattus norvegicus, Tail, ip, read-out: ED50

SMILES	ED50 [1, 11] [µmol/kg]	ED50 [5, 13] [µmol/kg]	ED50 [1] [µM/kg]	further results
C[C@@H]1C[C@@H]2C3Cc4ccc(O)cc4C2(CCN3C)CC1=O (stereo in doubt; 7T)	0.75			ED50 [2, 12]: 1.33 µmol/kg
C[C@H]1C[C@H]2C3Cc4ccc(O)cc4C2(CCN3CC2CCC2)CC1=O (stereo in doubt; 13C) [listing 1 of 2 here]				ED50 [3]: inactive
C=CCN1CC[C@]23c4c5ccc(O)c4O[C@H]2C(=O)CC[C@@]3(O)[C@H]1C5 [NALOXONE]				ED50 [4]: inactive
CC(C)=CCN1CC[C@]2(C)c3cc(O)ccc3C[C@H]1[C@H]2C [(+)-PENTAZOCINE]	12.9	36.4		Ratio [6]: 0.36
CC[C@H]1[C@H](C)C(=O)CC23CCN(CC4CCC4)C(Cc4ccc(OC)cc42)[C@H]13 (some centres not stated)	18.7	> 24		
C[C@H]1[C@H](C)C(=O)CC23CCN(CC4CCC4)C(Cc4ccc(O)cc42)[C@H]13 (some centres not stated)	2.21	5.66		Ratio [6]: 0.4
COc1ccc2c(c1)C13CCN(CC4CCC4)C(C2)[C@H]1C[C@@H](C)C(=O)C3 (some centres not stated)			20.3	
C[C@@H]1C[C@@H]2C3Cc4ccc(O)cc4C2(CCN3CC2CC2)CC1=O (stereo in doubt; 12T a)				ED50 [7]: 1.77 µmol/kg; ED50 [5]: 1.18 µM/kg; Ratio [6]: 1.5
CC[C@H]1[C@H](C)C(=O)CC23CCN(CC4CC4)C(Cc4ccc(OC)cc42)[C@H]13.Cl (some centres not stated)	8.04	15.7		Ratio [6]: 0.51
C[C@@H]1C[C@@H]2C3Cc4ccc(O)cc4C2(CCN3CC2CCC2)CC1=O (stereo in doubt; 13T)		13.8	2.6	Ratio [6]: 0.2
CC[C@@H]1[C@@H](C)C(=O)CC23CCN(C)C(Cc4ccc(OC)cc42)[C@@H]13 (some centres not stated)	7.42			ED50 [8]: inactive
CC[C@H]1[C@H](C)C(=O)CC23CCN(C)C(Cc4ccc(O)cc42)[C@H]13 (some centres not stated)	0.14			ED50 [2, 12]: 1.5 µmol/kg
COc1ccc2c(c1)C13CCN(C)C(C2)[C@H]1C[C@@H](C)C(=O)C3 (stereo in doubt; 6T)			5.54	ED50 [2, 12]: > 70 µmol/kg
COc1ccc2c(c1)C13CCN(CC4CC4)C(C2)[C@H]1[C@H](C)[C@@H](C)C(=O)C3 (some centres not stated)	> 26	> 26		
C[C@@H]1C[C@@H]2C3Cc4ccc(O)cc4C2(CCN3CC2CCC2)CC1=O (stereo in doubt; 13T a)			0.93	ED50 [5]: >24 µM/kg
COc1ccc2c(c1)C13CCN(C)C(C2)[C@@H]1C[C@H](C)C(=O)C3 (stereo in doubt; 6C)			1.72	ED50 [2, 12]: 2.32 µmol/kg
COc1ccc2c(c1)C13CCN(CC4CCC4)C(C2)[C@@H]1C[C@H](C)C(=O)C3 (some centres not stated) [listing 1 of 2 here]				ED50 [3]: inactive
C[C@@H]1[C@@H](C)C(=O)CC23CCN(CC4CCC4)C(Cc4ccc(O)cc42)[C@@H]13 (some centres not stated)	0.79	> 25		
C[C@@H]1[C@@H](C)C(=O)CC23CCN(C)C(Cc4ccc(O)cc42)[C@@H]13 (some centres not stated)	0.58			ED50 [2, 12]: 0.68 µmol/kg
COc1ccc2c(c1)C13CCN(C)C(C2)[C@H]1[C@H](C)[C@@H](C)C(=O)C3 (some centres not stated)	3.72			ED50 [9]: inactive

SMILES	ED50 [1, 11] [µmol/kg]	ED50 [5, 13] [µmol/kg]	ED50 [1] [µM/kg]	further results
CC[C@@H]1[C@@H](C)C(=O)CC23CCN(CC4CC4)C(Cc4ccc(O)cc42)[C@@H]13 (some centres not stated)	> 25	> 25		
C[C@H]1C[C@H]2C3Cc4ccc(O)cc4C2(CCN3CC2CCC2)CC1=O (stereo in doubt; 13C) [listing 2 of 2 here]			0.047	
C[C@H]1[C@H](C)C(=O)CC23CCN(CC4CC4)C(Cc4ccc(O)cc42)[C@H]13 (some centres not stated)	23	0.35		Ratio [6]: 65
COc1ccc2c(c1)C13CCN(CC4CC4)C(C2)[C@H]1C[C@@H](C)C(=O)C3.Cl (some centres not stated)			>40	ED50 [5]: 3.19 µM/kg
C[C@H]1C[C@H]2C3Cc4ccc(O)cc4C2(CCN3CC2CC2)CC1=O (stereo in doubt; 12C a)			2.4	ED50 [5]: 14.4 µM/kg; Ratio [6]: 0.17
C[C@@H]1C[C@@H]2C3Cc4ccc(O)cc4C2(CCN3CC2CC2)CC1=O (stereo in doubt; 12T)	8.9	2.24		Ratio [6]: 4
COc1ccc2c(c1)C13CCN(CC4CC4)C(C2)[C@H]1C[C@@H](C)C(=O)C3 (some centres not stated)	> 25	3.6		
CC[C@@H]1[C@@H](C)C(=O)CC23CCN(C)C(Cc4ccc(O)cc42)[C@@H]13 (some centres not stated)	7.53			ED50 [2, 12]: 7.45 µmol/kg
COc1ccc2c(c1)C13CCN(CC4CC4)C(C2)[C@@H]1C[C@H](C)C(=O)C3.Cl (some centres not stated)			1.6	ED50 [5]: 42.6 µM/kg; Ratio [6]: 0.04
COc1ccc2c(c1)C13CCN(CC4CC4)C(C2)[C@@H]1[C@@H](C)[C@H](C)C(=O)C3.Cl (some centres not stated)	2.64	12.1		Ratio [6]: 0.22
COc1ccc2c(c1)C13CCN(C)C(C2)[C@H]1C[C@@H](C)C(=O)C3 (stereo in doubt; 6T a) [listing 1 of 2 here]			15.7	
C[C@H]1C[C@H]2C3Cc4ccc(O)cc4C2(CCN3CC2CCC2)CC1=O (stereo in doubt; 13C a)		> 30	0.35	
CC[C@H]1[C@H](C)C(=O)CC23CCN(C)C(Cc4ccc(OC)cc42)[C@H]13 (some centres not stated)	0.49			ED50 [2, 12]: 2.75 µmol/kg
COc1ccc2c(c1)C13CCN(CC4CCC4)C(C2)[C@H]1[C@H](C)[C@@H](C)C(=O)C3 (some centres not stated)	> 25	> 25		
C=CCN1CC[C@]23c4c5ccc(O)c4O[C@H]2[C@@H](O)C=C[C@H]3[C@H]1C5 [NALORPHINE]	3.51	2.47		Ratio [6]: 1.42
COc1ccc2c(c1)C13CCN(CC4CCC4)C(C2)[C@@H]1C[C@H](C)C(=O)C3.Cl (some centres not stated)		> 25	3.58	
COc1ccc2c(c1)C13CCN(CC4CCC4)C(C2)[C@H]1C[C@@H](C)C(=O)C3.Cl (some centres not stated)		> 38	7.31	
COc1ccc2c(c1)C13CCN(C)C(C2)[C@@H]1[C@@H](C)[C@H](C)C(=O)C3 (some centres not stated)	2.16			ED50 [2, 12]: 17.9 µmol/kg
C[C@H]1[C@H]2Cc3ccc(O)cc3[C@]1(C)CCN2CC1CC1 [CYCLAZOCINE]	0.41	0.81		Ratio [6]: 0.5
COc1ccc2c(c1)C13CCN(CC4CCC4)C(C2)[C@@H]1[C@@H](C)[C@H](C)C(=O)C3 (some centres not stated)	15.8	> 25		

SMILES	ED50 [1, 11] [µmol/kg]	ED50 [5, 13] [µmol/kg]	ED50 [1] [µM/kg]	further results
COc1ccc2c3c1O[C@H]1[C@@H](O)C=C[C@H]4[C@@H](C2)N(C)CC[C@@]341 [CODEINE]	10.2			ED50 [2, 12]: 75 µmol/kg
CC[C@@H]1[C@@H](C)C(=O)CC23CCN(CC4CC4)C(Cc4ccc(OC)cc42)[C@@H]13 (some centres not stated)	> 25	> 25		
C[C@H]1[C@H](C)C(=O)CC23CCN(C)C(Cc4ccc(O)cc42)[C@H]13 (some centres not stated)	0.4			ED50 [2, 12]: 12.4 µmol/kg
CN1CC[C@]23c4c5ccc(O)c4O[C@H]2C(=O)CC[C@H]3[C@H]1C5 [HYDROMORPHONE]				ED50 [2, 12]: 1.34 µmol/kg
C[C@H]1C[C@H]2C3Cc4ccc(O)cc4C2(CCN3CC2CC2)CC1=O (stereo in doubt; 12C)	3.28	7.4		Ratio [6]: 0.44
CN1CC[C@]23c4c5ccc(O)c4O[C@H]2[C@@H](O)C=C[C@H]3[C@H]1C5 [MORPHINE]				ED50 [2, 12]: 19.3 µmol/kg
C[C@H]1C[C@H]2C3Cc4ccc(O)cc4C2(CCN3C)CC1=O (stereo in doubt; 7C)			0.52	ED50 [2]: 70 µM/kg
C[C@@H]1C[C@@H]2C3Cc4ccc(O)cc4C2(CCN3C)CC1=O (stereo in doubt; 7T a)			0.91	ED50 [2]: 1.09 µM/kg
COc1ccc2c(c1)C13CCN(C)C(C2)[C@@H]1C[C@H](C)C(=O)C3 (stereo in doubt; 6C a)			0.5	ED50 [2]: 1.6 µM/kg
Oc1ccc2c(c1)[C@@]13CCCC[C@@]1(O)[C@@H](C2)N(CC1CCC1)CC3 [BUTORPHANOL]	0.34	2		Ratio [6]: 0.17
COc1ccc2c(c1)C13CCN(CC4CC4)C(C2)[C@@H]1C[C@H](C)C(=O)C3 (some centres not stated)			0.66	ED50 [5]: 14.9 µM/kg; Ratio [6]: 0.04
CC[C@H]1[C@H](C)C(=O)CC23CCN(CC4CC4)C(Cc4ccc(O)cc42)[C@H]13 (some centres not stated)	> 25	2.23		
C[C@H]1C[C@H]2C3Cc4ccc(O)cc4C2(CCN3C)CC1=O (stereo in doubt; 7C a)	0.39			ED50 [2]: 1.82 µM/kg
CC[C@H]1[C@H](C)C(=O)CC23CCN(CC4CCC4)C(Cc4ccc(O)cc42)[C@H]13 (some centres not stated)	8.19	4.84		Ratio [6]: 1.7
COc1ccc2c3c1O[C@H]1C(=O)CC[C@H]4[C@@H](C2)N(C)CC[C@]314 [HYDROCODONE]	2.36			ED50 [2, 12]: 5.2 µmol/kg
CC[C@@H]1[C@@H](C)C(=O)CC23CCN(CC4CCC4)C(Cc4ccc(O)cc42)[C@@H]13 (some centres not stated)	> 25	> 25		
C[C@@H]1[C@@H](C)C(=O)CC23CCN(CC4CC4)C(Cc4ccc(O)cc42)[C@@H]13 (some centres not stated)	4.5	1.02		Ratio [6]: 4.4
COc1ccc2c(c1)C13CCN(CC4CCC4)C(C2)[C@@H]1C[C@H](C)C(=O)C3 (some centres not stated) [listing 2 of 2 here]			0.58	
CC[C@@H]1[C@@H](C)C(=O)CC23CCN(CC4CCC4)C(Cc4ccc(OC)cc42)[C@@H]13 (some centres not stated)	> 25	> 25		
COc1ccc2c(c1)C13CCN(C)C(C2)[C@H]1C[C@@H](C)C(=O)C3 (stereo in doubt; 6T a) [listing 2 of 2 here]				ED50 [10]: inactive
